From US20240116985A1, “STAPLED PEPTIDES AND METHODS THEREOF” (priority 2020, published 2024)
pIC50: −log10 of the molar value. Values after ≈ are worked out from the molar mass of the structure shown. Like-named read-outs stand apart in the source and are kept apart here.

Tests used:
[1] = target: T1, beta-catenin/TCF4 engagement (Homo sapiens, UniProt P35222); experiment: Nano-BRET target engagement assay (B-cat-Halo & TCF4-Luc in HEK293 cells); assay type: cell-based
T1 construct: expressed in transfected cells; host or cells: HEK293
T1 sequence (P35222 1-781): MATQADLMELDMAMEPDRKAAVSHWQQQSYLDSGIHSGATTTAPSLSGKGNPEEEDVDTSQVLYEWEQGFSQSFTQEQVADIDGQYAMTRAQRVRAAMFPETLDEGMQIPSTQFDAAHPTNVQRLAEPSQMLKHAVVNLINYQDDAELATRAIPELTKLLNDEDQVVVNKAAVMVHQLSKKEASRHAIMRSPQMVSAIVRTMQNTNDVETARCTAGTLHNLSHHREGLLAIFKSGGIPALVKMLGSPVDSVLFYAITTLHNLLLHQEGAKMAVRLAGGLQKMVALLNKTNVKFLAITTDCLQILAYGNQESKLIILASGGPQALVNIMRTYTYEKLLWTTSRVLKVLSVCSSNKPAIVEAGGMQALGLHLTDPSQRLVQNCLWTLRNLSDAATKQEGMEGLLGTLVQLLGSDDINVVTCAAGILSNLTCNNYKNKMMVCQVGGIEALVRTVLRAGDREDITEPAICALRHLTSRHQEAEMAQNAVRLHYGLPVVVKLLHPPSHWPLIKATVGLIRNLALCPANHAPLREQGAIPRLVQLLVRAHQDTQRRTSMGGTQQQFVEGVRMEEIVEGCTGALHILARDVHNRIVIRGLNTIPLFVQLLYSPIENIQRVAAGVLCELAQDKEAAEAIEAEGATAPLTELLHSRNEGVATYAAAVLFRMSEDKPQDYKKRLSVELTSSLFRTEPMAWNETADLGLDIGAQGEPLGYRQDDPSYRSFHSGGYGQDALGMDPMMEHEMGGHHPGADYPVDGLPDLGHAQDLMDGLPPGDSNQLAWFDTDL

CHI Log D procedure = assay type: physicochemical
[2] = target: T2, full-length beta-Catenin (Uniprot ID P35222) (Homo sapiens, UniProt P35222); experiment: Fluorescence polarization IC50 (beta-catenin / 5FAM-TCF4 10-53 competition); assay type: binding; conditions: read-out: beta-Catenin FP IC50
T2 construct: 10 nM full-length beta-Catenin (Uniprot ID P35222)
T2 sequence (P35222 1-781): T1 sequence (P35222 1-781)

Solubility in PBS = assay type: physicochemical
Summary of the method: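 Steps: ultracentrifuge the peptide PBS solution, inject the supernatant on HPLC, inject a 50 μM peptide DMSO solution as reference, then calculate solubility as area ratio (PBS/DMSO) × 50 uM.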

| Compound | pIC50 ([1]; read-out: NanoBRET Abs IC50) | pIC50 [2] | pIC50 ([1]; read-out: NanoBRET IC50) | chromatographic logD (CHI Log D procedure; pH 7.4, CHI Log D) | solubility at 15 min (Solubility in PBS; Solubility (uM)) [µM] | Solubility (Solubility in PBS; Solubility (uM)) [µM] | chromatographic logD (CHI Log D procedure; pH 7.4) | Solubility (Solubility in PBS) [µM] |
| --- | --- | --- | --- | --- | --- | --- | --- | --- |
| CC(=O)N1CCC[C@]12CC=CCCCC1(CCCC=CCCCOC(=O)N3CC[C@@](C(=O)N[C@@H](Cc4ccsc4)C(=O)N[C@@H](Cc4csc5ccccc45)C(=O)N[C@@H](CCC(N)=O)C(=O)N[C@@H](CCCCNC(=O)C(C)(c4ccccc4)c4ccccc4)C(N)=O)(C3)NC(=O)[C@H](CC(N)=O)NC(=O)[C@H](Cc3ccccc3)NC(=O)[C@H](C)NC(=O)[C@H](C)NC(=O)[C@H](CC(=O)O)NC(=O)[C@H](CC(=O)O)NC1=O)NC(=O)[C@H](CC(C)(C)C)NC(=O)[C@H](CC(=O)O)NC2=O (stereo partly drawn) [I-904, Ac-PL3-Asp-Npg-B5-Asp-Asp-Ala-Ala-Phe-Asn-PyrS2-3Thi-BztA-Gln-[22PhPr]Lys-NH2] | 4.70 | 7.27 |  |  |  |  | 2.65 | 30 (≈ 67.6 µg/mL) |
| CC(=O)N1CCC[C@]12CC=CCCCC1(CCCC=CCCCOC(=O)N3CC[C@@](C(=O)N[C@@H](Cc4ccsc4)C(=O)N[C@@H](Cc4csc5ccccc45)C(=O)N[C@@H](CCC(N)=O)C(=O)N[C@@H](CCCCNC(=O)c4ccc(CN5CCN(C)CC5)cc4)C(N)=O)(C3)NC(=O)[C@H](CC(N)=O)NC(=O)[C@H](Cc3ccccc3)NC(=O)[C@H](C)NC(=O)[C@H](C)NC(=O)[C@H](CC(=O)O)NC(=O)[C@H](CC(=O)O)NC1=O)NC(=O)[C@H](CC(C)(C)C)NC(=O)[C@H](CC(=O)O)NC2=O (stereo partly drawn) [I-908, Ac-PL3-Asp-Npg-B5-Asp-Asp-Ala-Ala-Phe-Asn-PyrS2-3Thi-BztA-Gln-[4MePipBz]Lys-NH2] | 4.59 | 8.00 |  | 1.82 |  | 44 (≈ 99.6 µg/mL) |  |  |

Compounds with a higher pIC50 [2], results first:

| pIC50 ([1]; read-out: NanoBRET Abs IC50) | pIC50 [2] | pIC50 ([1]; read-out: NanoBRET IC50) | chromatographic logD (CHI Log D procedure; pH 7.4, CHI Log D) | solubility at 15 min (Solubility in PBS; Solubility (uM)) [µM] | Solubility (Solubility in PBS; Solubility (uM)) [µM] | Compound | chromatographic logD (CHI Log D procedure; pH 7.4) | Solubility (Solubility in PBS) [µM] |
| --- | --- | --- | --- | --- | --- | --- | --- | --- |
| 4.56 | 8.05 |  | 1.8 |  | 20 (≈ 45.1 µg/mL) | CC(=O)N1CCC[C@]12CC=CCCCC1(CCCC=CCCCOC(=O)N3CC[C@@](C(=O)N[C@@H](Cc4ccsc4)C(=O)N[C@@H](Cc4csc5ccccc45)C(=O)N[C@@H](CCC(N)=O)C(=O)N[C@@H](CCCCNC(=O)C4CCN(C5CCN(C)CC5)CC4)C(N)=O)(C3)NC(=O)[C@H](CC(N)=O)NC(=O)[C@H](Cc3ccccc3)NC(=O)[C@H](C)NC(=O)[C@H](C)NC(=O)[C@H](CC(=O)O)NC(=O)[C@H](CC(=O)O)NC1=O)NC(=O)[C@H](CC(C)(C)C)NC(=O)[C@H](CC(=O)O)NC2=O (stereo partly drawn) [I-907, Ac-PL3-Asp-Npg-B5-Asp-Asp-Ala-Ala-Phe-Asn-PyrS2-3Thi-BztA-Gln-[MeBipipAc]Lys-NH2] |  |  |
|  | 8.10 | < 4.70 | 1.75 | 46 (≈ 101 µg/mL) |  | CC(=O)N1CCC[C@]12CC=CCCCC1(CCCC=CCCCOC(=O)N3CC[C@@](C(=O)N[C@@H](Cc4ccsc4)C(=O)N[C@@H](Cc4csc5ccccc45)C(=O)N[C@@H](CCC(N)=O)C(=O)N[C@@H](CCCCNC(=O)CN4CCN(C)CC4)C(N)=O)(C3)NC(=O)[C@H](CC(N)=O)NC(=O)[C@H](Cc3ccccc3)NC(=O)[C@H](C)NC(=O)[C@H](C)NC(=O)[C@H](CC(=O)O)NC(=O)[C@H](CC(=O)O)NC1=O)NC(=O)[C@H](CC(C)(C)C)NC(=O)[C@H](CC(=O)O)NC2=O (stereo partly drawn) [I-906, Ac-PL3-Asp-Npg-B5-Asp-Asp-Ala-Ala-Phe-Asn-PyrS2-3Thi-BztA-Gln-MePipAc Lys-NH2] |  |  |
| 4.55 | 8.10 |  | 1.93 |  | 44 (≈ 99 µg/mL) | CC(=O)N1CCC[C@]12CC=CCCCC1(CCCC=CCCCOC(=O)N3CC[C@@](C(=O)N[C@@H](Cc4ccsc4)C(=O)N[C@@H](Cc4csc5ccccc45)C(=O)N[C@@H](CCC(N)=O)C(=O)N[C@@H](CCCCNC(=O)c4ccc(CN5CCOCC5)cc4)C(N)=O)(C3)NC(=O)[C@H](CC(N)=O)NC(=O)[C@H](Cc3ccccc3)NC(=O)[C@H](C)NC(=O)[C@H](C)NC(=O)[C@H](CC(=O)O)NC(=O)[C@H](CC(=O)O)NC1=O)NC(=O)[C@H](CC(C)(C)C)NC(=O)[C@H](CC(=O)O)NC2=O (stereo partly drawn) [I-909, Ac-PL3-Asp-Npg-B5-Asp-Asp-Ala-Ala-Phe-Asn-PyrS2-3Thi-BztA-Gln-[MeMorphBz]Lys-NH2] |  |  |
